Test results as given in ChEMBL document CHEMBL5365543, “Benzamidine Conjugation Converts Expelled Potential Active Agents into Antifungals against Drug-Resistant Fungi” (J Med Chem, 2023).
Values after ≈ are worked out from the molar mass of the structure shown. Active and inactive are the calls of the source. No cut-off for these calls is given here.

Legend:
Candida albicans [1] = test: microbe, parasite or virus in culture; format: functional; conditions: DSY654, time 24 hrs
Description: Antifungal activity against efflux pump-deficient Candida albicans DSY654 assessed as inhibition of fungal growth measured after 24 hrs by CLSI based microtiter plate analysis

Candida albicans [2] = test: Antifungal activity against wild-type Candida albicans SC5314 assessed as inhibition of fungal growth measured after 24 hrs by CLSI based microtiter plate analysis; format: functional
Candida albicans [3] = test: Antifungal activity against clinical isolate Candida albicans YEM13 overexpressing efflux pump MdrL assessed as inhibition of fungal growth measured after 24 hrs by CLSI based microtiter plate analysis; format: functional
Candida albicans [4] = test: Antifungal activity against clinical isolate Candida albicans YEM15 overexpressing efflux pump CdrL and Cdr2 assessed as inhibition of fungal growth measured after 24 hrs by CLSI based microtiter plate analysis; format: functional
Candida albicans [5] = test: Antifungal activity against clinical isolate Candida albicans SCUPC2R14MPG2A harbouring UPC2 mutation overexpressing […] Erg11 assessed as inhibition of fungal growth measured after 24 hrs by CLSI based microtiter plate analysis; format: functional
Candida albicans [6] = test: Antifungal activity against clinical isolate Candida albicans SCMRRIR34MPG2A harbouring MRR1 mutation overexpressing efflux pump MdrL assessed as inhibition of fungal growth measured after 24 hrs by CLSI based microtiter plate analysis; format: functional
Candida albicans [7] = test: Antifungal activity against clinical isolate fluconazole-resistant Candida albicans DSY296 harbouring TAC1 mutation overexpressing efflux pump CdrL and Cdr2 assessed as inhibition of fungal growth measured after 24 hrs by CLSI based microtiter plate analysis; format: functional
Candida albicans [8] = test: Antifungal activity against clinical isolate fluconazole-resistant Candida albicans G5 harbouring MRR1 mutation overexpressing MdrL assessed as inhibition of fungal growth measured after 24 hrs by CLSI based microtiter plate analysis; format: functional
Candida albicans [9] = test: Antifungal activity against clinical isolate fluconazole-resistant Candida albicans Gu5 harbouring TAC1 mutation overexpressing efflux pump CdrL and Cdr2 assessed as inhibition of fungal growth measured after 24 hrs by CLSI based microtiter plate analysis; format: functional
Candida albicans [10] = test: Antifungal activity against clinical isolate fluconazole-resistant Candida albicans CA632 assessed as inhibition of fungal growth measured after 24 hrs by CLSI based microtiter plate analysis; format: functional
[Candida] auris [11] = Antifungal activity against clinical isolate fluconazole-resistant Candida auris CBS12774 assessed as inhibition of fungal growth measured after 24 hrs by CLSI based microtiter plate analysis; format: functional; conditions: Candidozyma auris
[Candida] auris [12] = Antifungal activity against clinical isolate fluconazole-resistant Candida auris CBS12776 assessed as inhibition of fungal growth measured after 24 hrs by CLSI based microtiter plate analysis; format: functional; conditions: Candidozyma auris
Nakaseomyces glabratus = test: Antifungal activity against clinical isolate fluconazole-resistant Candida glabrata CG2 assessed as inhibition of fungal growth measured after 24 hrs by CLSI based microtiter plate analysis; format: functional
Cryptococcus neoformans = test: Antifungal activity against clinical isolate fluconazole-resistant Cryptococcus neoformans H99 assessed as inhibition of fungal growth measured after 24 hrs by CLSI based microtiter plate analysis; format: functional
Candida tropicalis = test: Antifungal activity against clinical isolate fluconazole-resistant Candida tropicalis CT10 assessed as inhibition of fungal growth measured after 24 hrs by CLSI based microtiter plate analysis; format: functional
[13] = Drug accumulation in wild-type Candida albicans SC5314 at 50 microg/ml incubated for 3 hrs by HPLC analysis; format: ADME; conditions: dose 50 µg/ml
[14] = Candida albicans, SC5314, read-out: MIC80
[15] = Candida albicans, SC5314, 24 h, read-out: MIC80

## CCc1n(CCCI)c2ccccc2[n+]1C.[I-]
Candida albicans [1]
  MIC80: > 256 µg/mL
Candida albicans [2]; [14]
  MIC80: > 256 µg/mL

## C=CCc1ccc(OCCCOc2ccc(C(=N)N)cc2)c(-c2ccc(O)c(CC=C)c2)c1
Candida albicans [2]
  MIC: inactive
Candida albicans [2]; [15]
  MIC80: 8 µg/mL (≈ 18.1 µM)
Candida albicans [3]
  MIC80: 8 µg/mL (≈ 18.1 µM)
Candida albicans [4]
  MIC80: 8 µg/mL (≈ 18.1 µM)
Candida albicans [5]
  MIC80: 8 µg/mL (≈ 18.1 µM)
Candida albicans [6]
  MIC80: 8 µg/mL (≈ 18.1 µM)
Candida albicans [7]
  MIC80: 8 µg/mL (≈ 18.1 µM)
Candida albicans [8]
  MIC80: 8 µg/mL (≈ 18.1 µM)
Candida albicans [9]
  MIC80: 8 µg/mL (≈ 18.1 µM)
Candida albicans [10]
  MIC80: 8 µg/mL (≈ 18.1 µM)
[Candida] auris [11]
  MIC80: 8 µg/mL (≈ 18.1 µM)
[Candida] auris [12]
  MIC80: 16 µg/mL (≈ 36.2 µM)
Nakaseomyces glabratus
  MIC80: 16 µg/mL (≈ 36.2 µM)
Cryptococcus neoformans
  MIC80: 8 µg/mL (≈ 18.1 µM)
Candida tropicalis
  MIC80: 16 µg/mL (≈ 36.2 µM)
[13]
  Drug uptake: Active

## C=C1[C@H](O)[C@@]23CC[C@H]4[C@@](C)(CCC[C@@]4(C)C(=O)O)[C@@H]2CC[C@]1(O)C3
Candida albicans [2]; Candida albicans, SC5314
  MIC: > 256 µg/mL
[13]; BLD = below limit of detection
  Drug uptake: Bld

## Cc1cc(N)c2ccccc2[n+]1CCCCCI.[I-]
Candida albicans [1]
  MIC80: 128 µg/mL
Candida albicans [2]; [14]
  MIC80: 128 µg/mL

## CC1(C)CC[C@]2(C(=O)O)CC[C@]3(C)C(=CC[C@@H]4[C@@]5(C)CC[C@H](O)C(C)(C)[C@@H]5CC[C@]43C)[C@@H]2C1 [OLEANOLIC_ACID]
Candida albicans [2]; Candida albicans, SC5314
  MIC: > 256 µg/mL
[13]; BLD = below limit of detection
  Drug uptake: Bld

## CC1(C)CC[C@]2(C(=O)OCCCOc3ccc(C(=N)N)cc3)CC[C@]3(C)C(=CC[C@@H]4[C@@]5(C)CC[C@H](O)C(C)(C)[C@@H]5CC[C@]43C)[C@@H]2C1
Candida albicans [2]; [14]
  MIC80: 4 µg/mL (≈ 6.32 µM)
[13]
  Drug uptake: Active

## Clc1ccc2c(c1)CCc1cccnc1C2=C1CCNCC1 [DESLORATADINE]
[13]; BLD = below limit of detection
  Drug uptake: Bld

## C=C1C(=O)[C@@]2(C)CC[C@@H]3[C@]1(CC[C@H]1[C@@]3(C)CCC[C@@]1(C)C(=O)O)C2
[13]; BLD = below limit of detection
  Drug uptake: Bld

## C=CCc1ccc(O)c(-c2ccc(OCCCOc3ccc(C(=N)N)cc3)c(CC=C)c2)c1
Candida albicans [2]
  MIC: inactive
Candida albicans [2]; [15]
  MIC80: 8 µg/mL (≈ 18.1 µM)
Candida albicans [3]
  MIC80: 8 µg/mL (≈ 18.1 µM)
Candida albicans [4]
  MIC80: 8 µg/mL (≈ 18.1 µM)
Candida albicans [5]
  MIC80: 8 µg/mL (≈ 18.1 µM)
Candida albicans [6]
  MIC80: 8 µg/mL (≈ 18.1 µM)
Candida albicans [7]
  MIC80: 8 µg/mL (≈ 18.1 µM)
Candida albicans [8]
  MIC80: 8 µg/mL (≈ 18.1 µM)
Candida albicans [9]
  MIC80: 8 µg/mL (≈ 18.1 µM)
Candida albicans [10]
  MIC80: 8 µg/mL (≈ 18.1 µM)
[Candida] auris [11]
  MIC80: 8 µg/mL (≈ 18.1 µM)
[Candida] auris [12]
  MIC80: 16 µg/mL (≈ 36.2 µM)
Nakaseomyces glabratus
  MIC80: 16 µg/mL (≈ 36.2 µM)
Cryptococcus neoformans
  MIC80: 8 µg/mL (≈ 18.1 µM)
Candida tropicalis
  MIC80: 16 µg/mL (≈ 36.2 µM)
[13]
  Drug uptake: Active

## C=C1[C@H](O)[C@@]23CC[C@H]4[C@@](C)(CCC[C@@]4(C)C(=O)OCCCOc4ccc(C(=N)N)cc4)[C@@H]2CC[C@]1(O)C3
Candida albicans [2]; [14]
  MIC80: 64 µg/mL (≈ 125 µM)
[13]
  Drug uptake: Active

## CC/C(=C(/CC)c1ccc(OCCCOc2ccc(C(=N)N)cc2)cc1)c1ccc(O)cc1
Candida albicans [2]
  MIC: inactive
Candida albicans [2]; [15]
  MIC80: 4 µg/mL (≈ 9 µM)
Candida albicans [3]
  MIC80: 4 µg/mL (≈ 9 µM)
Candida albicans [4]
  MIC80: 4 µg/mL (≈ 9 µM)
Candida albicans [5]
  MIC80: 4 µg/mL (≈ 9 µM)
Candida albicans [6]
  MIC80: 4 µg/mL (≈ 9 µM)
Candida albicans [7]
  MIC80: 4 µg/mL (≈ 9 µM)
Candida albicans [8]
  MIC80: 4 µg/mL (≈ 9 µM)
Candida albicans [9]
  MIC80: 4 µg/mL (≈ 9 µM)
Candida albicans [10]
  MIC80: 4 µg/mL (≈ 9 µM)
[Candida] auris [11]
  MIC80: 4 µg/mL (≈ 9 µM)
[Candida] auris [12]
  MIC80: 4 µg/mL (≈ 9 µM)
Nakaseomyces glabratus
  MIC80: 8 µg/mL (≈ 18 µM)
Cryptococcus neoformans
  MIC80: 8 µg/mL (≈ 18 µM)
Candida tropicalis
  MIC80: 4 µg/mL (≈ 9 µM)
[13]
  Drug uptake: Active

## C[C@@H]1[C@H](O)[C@@H](C)/C=C/C=C/C=C/C=C/C=C/C=C/C=C/[C@H](O[C@@H]2O[C@H](C)[C@@H](O)[C@H](N)[C@@H]2O)C[C@@H]2O[C@](O)(C[C@@H](O)C[C@@H](O)[C@H](O)CC[C@@H](O)C[C@@H](O)CC(=O)O[C@H]1C)C[C@H](O)[C@H]2C(=O)O [AMPHOTERICIN B]
Candida albicans [2]; [15]
  MIC80: 0.5 µg/mL (≈ 0.541 µM)
Candida albicans [3]
  MIC80: 0.5 µg/mL (≈ 0.541 µM)
Candida albicans [4]
  MIC80: 2 µg/mL (≈ 2.16 µM)
Candida albicans [5]
  MIC80: 0.5 µg/mL (≈ 0.541 µM)
Candida albicans [7]
  MIC80: 0.5 µg/mL (≈ 0.541 µM)
Candida albicans [8]
  MIC80: 0.5 µg/mL (≈ 0.541 µM)
Candida albicans [9]
  MIC80: 1 µg/mL (≈ 1.08 µM)
Candida albicans [10]
  MIC80: 0.5 µg/mL (≈ 0.541 µM)
[Candida] auris [11]
  MIC80: 1 µg/mL (≈ 1.08 µM)
[Candida] auris [12]
  MIC80: 1 µg/mL (≈ 1.08 µM)
Nakaseomyces glabratus
  MIC80: 0.5 µg/mL (≈ 0.541 µM)
Cryptococcus neoformans
  MIC80: 1 µg/mL (≈ 1.08 µM)
Candida tropicalis
  MIC80: 2 µg/mL (≈ 2.16 µM)

## C#C[C@]1(O)CC[C@H]2[C@@H]3CCC4=CCCC[C@@H]4[C@H]3C(=C)C[C@@]21CC [DESOGESTREL]
Candida albicans [1]
  MIC: 4 µg/mL (≈ 12.9 µM)
[13]; BLD = below limit of detection
  Drug uptake: Bld

## Fc1ccc(C(c2ccc(F)cc2)N2CCNCC2)cc1
Candida albicans [2]; Candida albicans, SC5314
  MIC: > 256 µg/mL
[13]; BLD = below limit of detection
  Drug uptake: Bld

## C=CCc1ccc(O)c(-c2ccc(O)c(CC=C)c2)c1 [HONOKIOL]
Candida albicans [1]
  MIC: 4 µg/mL (≈ 15 µM)
[13]; BLD = below limit of detection
  Drug uptake: Bld

## O=C(O)c1ccccc1Nc1cccc(C(F)(F)F)c1 [FLUFENAMIC ACID]
Candida albicans [2]; Candida albicans, SC5314
  MIC: > 256 µg/mL
[13]; BLD = below limit of detection
  Drug uptake: Bld

## C=C1C(=O)[C@@]2(C)CC[C@@H]3[C@@]1(CC[C@H]1[C@@]3(C)CCC[C@@]1(C)C(=O)OCCCCCCCCCOc1ccc(C(=N)N)cc1)C2
Candida albicans [2]; Candida albicans, SC5314
  MIC: 32 µg/mL (≈ 54.2 µM)
[13]; BLD = below limit of detection
  Drug uptake: Bld

## BrCCC[P+](c1ccccc1)(c1ccccc1)c1ccccc1.[Br-]
Candida albicans [1]
  MIC80: > 256 µg/mL
Candida albicans [2]; [14]
  MIC80: > 256 µg/mL

## Cc1ccc(Sc2ccccc2N2CCNCC2)c(C)c1 [VORTIOXETINE]
Candida albicans [1]
  MIC: 4 µg/mL (≈ 13.4 µM)
[13]; BLD = below limit of detection
  Drug uptake: Bld
